Experiments:
Strongylidase [1] = assay: Trial 2: modified critical test, efficacy against Strongylidase in horses; assay type: in vivo; conditions: Trial 2, horses
Description: (§1) The method of evaluating the activity of the formulation was a modified critical test (Lyons et al., 1986) which involved killing the horses 24 hours after treatment.
(§2) Efficacy is the number of worms count dead and removed versus the number of worms count alive and not removed (scolex attached for Anaplocephala perfoliata).
(§3) A trial involving Ivermectin drench (1 ml per 10 kg of body weight equivalent to 0.2 mg of Ivermectin per kg B.W.), praziquantel drench (0.5 to 2 mg of praziquantel per kg of body weight), and formulations in accordance with Examples 6, 7 and 8.
(§4) Seven groups of 6 horses per group were involved in the study. Area of origin of the horses was well known for having internal parasitism problem and specifically tapeworms (Anoplocephala perfoliata) infestation.

Gasterophilus spp. [2] = assay: Trial 2: modified critical test, efficacy against Gasterophilus spp. in horses; assay type: in vivo; conditions: Trial 2, horses
Description: as §1, §2, §3, §4

Parascaris equorum [3] = assay: Trial 2: modified critical test, efficacy against Parascaris equorum in horses; assay type: in vivo; conditions: Trial 2, horses
Description: as §1, §2, §3, §4

Anoplocephala perfoliata [4] = assay: Trial 2: modified critical test, efficacy against Anoplocephala perfoliata in horses; assay type: in vivo; conditions: Trial 2, horses
Description: as §1, §2, §3, §4

Strongylidase [5] = assay: Trial 1: modified critical test, efficacy against Strongylidase in horses; assay type: in vivo; conditions: Trial 1, horses
Description: as §1, §2
(§5) A trial involving abamectin paste (1 ml per 20 kg of body weight equivalent to 0.2 mg of Abamectin per kg B.W.), praziquantel paste (0.1 to 5 mg of Praziquantel per kg of body weight), and formulations in accordance with examples 1,2,3,4 and 5.
(§6) Eleven groups of ten horses per group were involved in the study. Area of origin of the horses was well known for having internal parasitism problem and specifically tapeworms (Anoplocephala perfoliata) infestation.

Gasterophilus spp. [6] = assay: Trial 1: modified critical test, efficacy against Gasterophilus spp. in horses; assay type: in vivo; conditions: Trial 1, horses
Description: as §1, §2, §5, §6

Parascaris equorum [7] = assay: Trial 1: modified critical test, efficacy against Parascaris equorum in horses; assay type: in vivo; conditions: Trial 1, horses
Description: as §1, §2, §5, §6

Anoplocephala perfoliata [8] = assay: Trial 1: modified critical test, efficacy against Anoplocephala perfoliata in horses; assay type: in vivo; conditions: Trial 1, horses
Description: as §1, §2, §5, §6

[9] = Biodisponibility of praziquantel in horses; assay type: in vivo; conditions: paste formula
[10] = cited from earlier work

CC[C@H](C)[C@H]1O[C@]2(CC[C@@H]1C)C[C@@H]1C[C@@H](C/C=C(\C)[C@@H](O[C@H]3C[C@H](OC)[C@@H](O[C@H]4C[C@H](OC)[C@@H](O)[C@H](C)O4)[C@H](C)O3)[C@@H](C)/C=C/C=C3\CO[C@@H]4[C@H](O)C(C)=C[C@@H](C(=O)O1)[C@]34O)O2 [Ivermectin]
% Efficacy Strongylidase (Strongylidase [1]; ivermectin 0.2 mg/kg): 100% | % Efficacy Gasterophilus spp. (Gasterophilus spp. [2]; ivermectin 0.2 mg/kg): 100% | % Efficacy Parascaris equorum (Parascaris equorum [3]; ivermectin 0.2 mg/kg): 100% | % Efficacy Anoplocephala perfoliata (Anoplocephala perfoliata [4]; ivermectin 0.2 mg/kg): 0%

O=C(C1CCCCC1)N1CC(=O)N2CCc3ccccc3C2C1 (stereo not drawn) [Praziquantel, 2(cyclohexylcarbonyl)-1,2,3,6,7,11b-hexahydro-4H-pyrazino[2,1-a]isoquinolin-4-one]
% Efficacy Strongylidase (Strongylidase [5]; praziquantel 0.1 mg/kg): 0% | % Efficacy Strongylidase (Strongylidase [5]; praziquantel 0.5 mg/kg): 0% | % Efficacy Strongylidase (Strongylidase [5]; praziquantel 1 mg/kg): 0% | % Efficacy Strongylidase (Strongylidase [5]; praziquantel 2 mg/kg): 0% | % Efficacy Strongylidase (Strongylidase [5]; praziquantel 5 mg/kg): 0% | % Efficacy Gasterophilus spp. (Gasterophilus spp. [6]; praziquantel 0.1 mg/kg): 0% | % Efficacy Gasterophilus spp. (Gasterophilus spp. [6]; praziquantel 0.5 mg/kg): 0% | % Efficacy Gasterophilus spp. (Gasterophilus spp. [6]; praziquantel 1 mg/kg): 0% | % Efficacy Gasterophilus spp. (Gasterophilus spp. [6]; praziquantel 2 mg/kg): 0% | % Efficacy Gasterophilus spp. (Gasterophilus spp. [6]; praziquantel 5 mg/kg): 0% | % Efficacy Parascaris equorum (Parascaris equorum [7]; praziquantel 0.1 mg/kg): 0% | % Efficacy Parascaris equorum (Parascaris equorum [7]; praziquantel 0.5 mg/kg): 0% | % Efficacy Parascaris equorum (Parascaris equorum [7]; praziquantel 1 mg/kg): 0% | % Efficacy Parascaris equorum (Parascaris equorum [7]; praziquantel 2 mg/kg): 0% | % Efficacy Parascaris equorum (Parascaris equorum [7]; praziquantel 5 mg/kg): 0% | % Efficacy Anoplocephala perfoliata (Anoplocephala perfoliata [8]; praziquantel 0.1 mg/kg): 0% | % Efficacy Anoplocephala perfoliata (Anoplocephala perfoliata [8]; praziquantel 0.5 mg/kg): 27% | % Efficacy Anoplocephala perfoliata (Anoplocephala perfoliata [8]; praziquantel 1 mg/kg): 51% | % Efficacy Anoplocephala perfoliata (Anoplocephala perfoliata [8]; praziquantel 2 mg/kg): 71% | % Efficacy Anoplocephala perfoliata (Anoplocephala perfoliata [8]; praziquantel 5 mg/kg): 33% | % Efficacy Strongylidase (Strongylidase [1]; praziquantel 0.5 mg/kg): 0% | % Efficacy Strongylidase (Strongylidase [1]; praziquantel 1 mg/kg): 0% | % Efficacy Strongylidase (Strongylidase [1]; praziquantel 2 mg/kg): 0% | % Efficacy Gasterophilus spp. (Gasterophilus spp. [2]; praziquantel 0.5 mg/kg): 0% | % Efficacy Gasterophilus spp. (Gasterophilus spp. [2]; praziquantel 1 mg/kg): 0% | % Efficacy Gasterophilus spp. (Gasterophilus spp. [2]; praziquantel 2 mg/kg): 0% | % Efficacy Parascaris equorum (Parascaris equorum [3]; praziquantel 0.5 mg/kg): 0% | % Efficacy Parascaris equorum (Parascaris equorum [3]; praziquantel 1 mg/kg): 0% | % Efficacy Parascaris equorum (Parascaris equorum [3]; praziquantel 2 mg/kg): 0% | % Efficacy Anoplocephala perfoliata (Anoplocephala perfoliata [4]; praziquantel 0.5 mg/kg): 21% | % Efficacy Anoplocephala perfoliata (Anoplocephala perfoliata [4]; praziquantel 1 mg/kg): 43% | % Efficacy Anoplocephala perfoliata (Anoplocephala perfoliata [4]; praziquantel 2 mg/kg): 59% | biodisponibility of praziquantel [9]: better biodisponibility | solubility in water [10]: relatively insoluble

Abamectin
% Efficacy Strongylidase (Strongylidase [5]; abamectin 0.2 mg/kg): 100% | % Efficacy Gasterophilus spp. (Gasterophilus spp. [6]; abamectin 0.2 mg/kg): 100% | % Efficacy Parascaris equorum (Parascaris equorum [7]; abamectin 0.2 mg/kg): 100% | % Efficacy Anoplocephala perfoliata (Anoplocephala perfoliata [8]; abamectin 0.2 mg/kg): 0%

Reference: patent US5824653A, “Anthelmintic compositions for equidae” (priority 1994, dated 1998)
